Tested on: panel of 484 cancer cell lines
Assay: PRISM cancer cell line profiling, 5 days
Type: cell-based
Set-up: AUC: unit not given beside the values
Method: Cancer cell line profiling was performed using the Broad’s PRISM platform. Cell treatment and data analysis were performed as described in Yu et al[42]. Raw Luminex signal was converted to AUC values for each cell line as described. The resulting AUC profile for each compound was modeled against DepMap using the limma package in R[71]. Because hotspot mutation analysis was performed against DepMap, TP53 annotations in Fig. 6c,d are directly from DepMap.

## CN1CCN(CCC(=O)Nc2ccc3c(=O)n(CC4(O)CCN(C(=O)[C@@H](CCCNC(=O)c5ccc6c(Cl)c7c(nc6c5)CCCC7)Cc5ccccc5)CC4)cnc3c2)CC1 [XL177A]
RVH421_SKIN
  AUC: 0.7933
S117_SOFT_TISSUE
  AUC: 0.8952
SBC5_LUNG
  AUC: 1.121
SCABER_URINARY_TRACT
  AUC: 0.8461
SCC25_UPPER_AERODIGESTIVE_TRACT
  AUC: 0.7649
SF126_CENTRAL_NERVOUS_SYSTEM
  AUC: 1.059
SF295_CENTRAL_NERVOUS_SYSTEM
  AUC: 1.367
SF539_CENTRAL_NERVOUS_SYSTEM
  AUC: 0.7901
SH4_SKIN
  AUC: 0.8355
SH10TC_STOMACH
  AUC: 0.9409
SIMA_AUTONOMIC_GANGLIA
  AUC: 1.153
SJSA1_BONE
  AUC: 0.9454
SKES1_BONE
  AUC: 1.123
SKHEP1_LIVER
  AUC: 1.003
SKLU1_LUNG
  AUC: 1.145
SKMEL2_SKIN
  AUC: 1.16
SKMEL3_SKIN
  AUC: 1.119
SKMEL5_SKIN
  AUC: 1.147
SKMEL24_SKIN
  AUC: 1.297
SKMEL30_SKIN
  AUC: 0.992
SKMES1_LUNG
  AUC: 0.9519
SKNAS_AUTONOMIC_GANGLIA
  AUC: 1.0969
SKNBE2_AUTONOMIC_GANGLIA
  AUC: 1.099
SKOV3_OVARY
  AUC: 0.9025
SKUT1_SOFT_TISSUE
  AUC: 1.15
SNB75_CENTRAL_NERVOUS_SYSTEM
  AUC: 0.9344
SNGM_ENDOMETRIUM
  AUC: 1.144
SNU46_UPPER_AERODIGESTIVE_TRACT
  AUC: 1.075
SNU61_LARGE_INTESTINE
  AUC: 1.293
SNU81_LARGE_INTESTINE
  AUC: 1.343
SNU213_PANCREAS
  AUC: 0.7501
SNU245_BILIARY_TRACT
  AUC: 1.4902
SNU308_BILIARY_TRACT
  AUC: 1.159
SNU398_LIVER
  AUC: 0.9557
SNU407_LARGE_INTESTINE
  AUC: 0.9921
SNU410_PANCREAS
  AUC: 1.104
SNU423_LIVER
  AUC: 0.9049
SNU449_LIVER
  AUC: 1.072
SNU466_CENTRAL_NERVOUS_SYSTEM
  AUC: 0.6104
SNU601_STOMACH
  AUC: 1.062
SNU668_STOMACH
  AUC: 0.8134
SNU685_ENDOMETRIUM
  AUC: 0.8198
SNU719_STOMACH
  AUC: 0.6005
SNU738_CENTRAL_NERVOUS_SYSTEM
  AUC: 0.9451
SNU761_LIVER
  AUC: 1.358
SNU840_OVARY
  AUC: 0.9553
SNU869_BILIARY_TRACT
  AUC: 1.237
SNU886_LIVER
  AUC: 1.085
SNU1041_UPPER_AERODIGESTIVE_TRACT
  AUC: 1.036
SNU1066_UPPER_AERODIGESTIVE_TRACT
  AUC: 1.434
SNU1076_UPPER_AERODIGESTIVE_TRACT
  AUC: 1.032
SNU1077_ENDOMETRIUM
  AUC: 1.075
SNU1079_BILIARY_TRACT
  AUC: 1.101
SNU1105_CENTRAL_NERVOUS_SYSTEM
  AUC: 1.015
SNU1196_BILIARY_TRACT
  AUC: 1.095
SNU1214_UPPER_AERODIGESTIVE_TRACT
  AUC: 0.7181
SNUC2A_LARGE_INTESTINE
  AUC: 1.088
SNUC4_LARGE_INTESTINE
  AUC: 1.036
SNUC5_LARGE_INTESTINE
  AUC: 1.147
SQ1_LUNG
  AUC: 0.9875
SUIT2_PANCREAS
  AUC: 0.9816
SW480_LARGE_INTESTINE
  AUC: 1.095
SW579_THYROID
  AUC: 0.8837
SW620_LARGE_INTESTINE
  AUC: 1.161
SW780_URINARY_TRACT
  AUC: 0.8743
SW837_LARGE_INTESTINE
  AUC: 1.139
SW900_LUNG
  AUC: 1.083
SW948_LARGE_INTESTINE
  AUC: 1.148
SW1088_CENTRAL_NERVOUS_SYSTEM
  AUC: 1.163
SW1271_LUNG
  AUC: 1.0015
SW1353_BONE
  AUC: 0.7826
SW1573_LUNG
  AUC: 1.097
SW1710_URINARY_TRACT
  AUC: 0.9553
SW1990_PANCREAS
  AUC: 0.9791
T3M10_LUNG
  AUC: 1.003
T24_URINARY_TRACT
  AUC: 1.033
T47D_BREAST
  AUC: 1.05
T98G_CENTRAL_NERVOUS_SYSTEM
  AUC: 0.9138
TCCPAN2_PANCREAS
  AUC: 1.167
TCCSUP_URINARY_TRACT
  AUC: 1.301
TE1_OESOPHAGUS
  AUC: 1.2696
TE4_OESOPHAGUS
  AUC: 1.044
TE5_OESOPHAGUS
  AUC: 0.9519
TE6_OESOPHAGUS
  AUC: 0.8165
TE8_OESOPHAGUS
  AUC: 1.003
TE9_OESOPHAGUS
  AUC: 1.141
TE10_OESOPHAGUS
  AUC: 0.9335
TE11_OESOPHAGUS
  AUC: 1.05
TEN_ENDOMETRIUM
  AUC: 0.8216
TM31_CENTRAL_NERVOUS_SYSTEM
  AUC: 1.2102
TM87_SOFT_TISSUE
  AUC: 1.188
TOV21G_OVARY
  AUC: 0.5189
TOV112D_OVARY
  AUC: 1.085
TP53 annotation by functional scores of Giacomelli et al.
  mean diff. between TP53 functional WT and functional mutant populations (AUC): 0.072 ± 0.016
TT2609C02_THYROID
  AUC: 0.9464
TT_OESOPHAGUS
  AUC: 1.06
TT_THYROID
  AUC: 0.8609
TUHR4TKB_KIDNEY
  AUC: 1.102
U2OS_BONE
  AUC: 1.296
U118MG_CENTRAL_NERVOUS_SYSTEM
  AUC: 1.069
U251MG_CENTRAL_NERVOUS_SYSTEM
  AUC: 0.9403
UACC62_SKIN
  AUC: 0.9957
UACC257_SKIN
  AUC: 0.801
UBLC1_URINARY_TRACT
  AUC: 0.854
UMUC1_URINARY_TRACT
  AUC: 0.8933
UO31_KIDNEY
  AUC: 1.106
VMCUB1_URINARY_TRACT
  AUC: 0.9786
VMRCRCW_KIDNEY
  AUC: 1.013
VMRCRCZ_KIDNEY
  AUC: 1.099
WM88_SKIN
  AUC: 1.176
WM793_SKIN
  AUC: 1.125
WM983B_SKIN
  AUC: 1.093
WM1799_SKIN
  AUC: 0.5219
WM2664_SKIN
  AUC: 0.9262
YAPC_PANCREAS
  AUC: 1.218
YD8_UPPER_AERODIGESTIVE_TRACT
  AUC: 0.881
YD10B_UPPER_AERODIGESTIVE_TRACT
  AUC: 0.9499
YD15_SALIVARY_GLAND
  AUC: 0.7713
YD38_UPPER_AERODIGESTIVE_TRACT
  AUC: 0.8781
YH13_CENTRAL_NERVOUS_SYSTEM
  AUC: 0.9484
YKG1_CENTRAL_NERVOUS_SYSTEM
  AUC: 0.9563
ZR751_BREAST
  AUC: 0.7595
